Test results reported in patent publication US7989496B2, “Transdermal delivery of ketoprofen polar derivatives” (Noven Pharmaceuticals, Inc., priority 2006, dated 2011).

Assay: Human cadaver skin permeation study in modified Franz diffusion cells
Settings: for 72 hr Cumulative Permeation: drug-in-adhesive formulation, human cadaver stratum corneum, Franz cells, 32° C.; for transdermal delivery rate compared with ketoprofen: previous work by the inventor on non-polar ketoprofen derivatives; for delivery rate (average flux through cadaver skin), FIG. 2: ketoprofen, polar and non-polar derivatives

Compound	72 hr Cumulative Permeation [µg/cm²]	transdermal delivery rate compared with ketoprofen	delivery rate (average flux through cadaver skin), FIG. 2 (cadaver skin in Franz cells)	skin permeation over 72 hours (over 72 hours)	delivery rate (average flux through cadaver skin), FIG. 1 (non-polar ketoprofen derivatives, approximate 84 hour time period, cadaver skin in Franz cells)
CCOC(=O)C(C)c1cccc(C(=O)c2ccccc2)c1 (stereo not shown) [Ketoprofen Ethyl Ester]	170	lower delivery rates than ketoprofen	–	–	–
CC(C)OC(=O)C(C)c1cccc(C(=O)c2ccccc2)c1 (stereo not shown) [Ketoprofen Isopropyl Ester]	61.2	lower delivery rates than ketoprofen	–	–	–
CC(C(=O)OCC(O)CO)c1cccc(C(=O)c2ccccc2)c1 (stereo not shown) [Ketoprofen Monoglycerol Ester]	214	–	faster delivery rate than each of the non-polar ester derivatives tested	–	–
CC(C(=O)O)c1cccc(C(=O)c2ccccc2)c1 (stereo not shown) [Ketoprofen, 2-(3-benzoyl-phenyl)-propionic acid]	–	–	highest delivery rate	about 1110 μg/cm^2	–
COC(=O)C(C)c1cccc(C(=O)c2ccccc2)c1 (stereo not shown) [methyl ester of ketoprofen]	–	lower delivery rates than ketoprofen	–	–	faster delivery rate than each of the ethyl ester and isopropyl ester
